From patent US20250134907A1, “FUSED DIAZEPINES AS AGONISTS OF THE INSULIN-LIKE 3 (INSL3) PEPTIDE RECEPTOR RXFP2 AND METHODS OF USE THEREOF” (The United States of America,as represented by the …, priority 2022, published 2025)
Read-outs that look alike come from different tables or passages of the source.

Assays:
[1] = system: 320 GPCR Tango constructs; test: PRESTO-Tango GPCRome counter-screen (beta-arrestin recruitment) in transiently transfected HTLA cells; type: cell-based; settings: 10 μM compound, 320 GPCRs
Experimental: The PRESTO-Tango GPCRome assay, which measures G-protein coupled receptors (GPCR) mediated beta-arrestin recruitment, was used to perform a HTS of related GPCRs to study specificity and selectivity of the RXFP2 agonists. A total of 320 GPCR Tango constructs were tested. Each of the GPCR constructs used in the assay contained a FLAG tag, the GPCR gene of interest, a Vasopressin 2 C-terminal tail, the TEV protease cleavage site, and the tetracycline-controlled transactivator (tTA) transcription factor. The assay was performed using transiently transfected HTLA cells that stably express the beta-arrestin2-TEV protease fusion protein and a luciferase reporter gene under the control of the tTA transcription factor. Ligand activation of the transfected GPCR construct induces beta-arrestin translocation to the GPCR, where the tobacco etch virus (TEV) protease cleaves the tTA transcription factor, causing activation of luciferase transcription in the nucleus. Thus, luciferase activity in these cells is proportional to beta-arrestin translocation activity. For this assay, HTLA cells were seeded in Poly-L-Lys (PLL)-coated 384-well white clear-bottom plates at 10,000 cell/well in 40 μl/well DMEM supplemented with 10% FBS. […] Plates were incubated for 20 minutes at room temperature protected from light and the luminescence signal was read on a MicroBeta counter (PerkinElmer, Waltham, MA). […]

[2] = Pharmacokinetic study in female mice (plasma, liver, bone); type: in vivo, female C57/BL6 mice
Description: FIG. 24A depicts the plasma profile. FIG. 24B depicts the liver profile and FIG. 24C depicts the bone profiles. The actual concentration (ng/g) is the detected value (ng/mL) multiplied by 4. […] 40% HP-b-CD-75% PEG300. Three mice were used per time point. Results are expressed as the mean SEM.
2-hydroxypropyl-beta-cyclodextrin (HPBCD).
FIG. 24A depicts the plasma profile. FIG. 24B depicts the liver profile and FIG. 24C depicts the bone profiles. The actual concentration (ng/g) is the detected value (ng/mL) multiplied by 4. […] 40% HP-b-CD-75% PEG300. Three mice were used per time point. Results are expressed as the mean±SEM.

[3] = system: trabecular bone of L3 vertebrae; test: Bone anabolic study, microCT of L3 vertebrae; type: in vivo, C57BL/6J female mice; settings: 10 mg/kg oral gavage every other day, 8 weeks, vs vehicle
[4] = bone, PO 10 mg/kg, one administration
[5] = liver, PO 10 mg/kg, one administration
[6] = plasma, PO 10 mg/kg, one administration

O=C1Nc2ccc(-c3cc(C(F)(F)F)cc(C(F)(F)F)c3)cc2C(=O)N2CCN(C(=O)COc3ccc(OC(F)(F)F)cc3Br)C[C@@H]12 [Example 158, (S)-8-(3,5-Bis(trifluoromethyl)phenyl)-2-(2-(2-bromo-4-(trifluoromethoxy)phenoxy)acetyl)-1,3,4,12a-tetrahydrobenzo[e]pyrazino[1,2-a][1,4]diazepine-6,12 (2H, 11H)-dione]
GPCR agonist hits (minimum 3.0-fold RLU of basal) [1]: very few GPCR hits

O=C1Nc2ccc(-c3cc(C(F)(F)F)cc(C(F)(F)F)c3)cc2C(=O)N2CCN(C(=O)COc3ccc(OC(F)(F)F)cc3I)C[C@@H]12 [Example 187, (S)-8-(3,5-bis(trifluoromethyl)phenyl)-2-(2-(2-iodo-4-(trifluoromethoxy)phenoxy)acetyl)-1,3,4,12a-tetrahydrobenzo[e]pyrazino[1,2-a][1,4]diazepine-6,12 (2H, 11H)-dione]
Maximum serum concentration ([2]; Table 10, IV 3 mg/kg): 3.25 µg/mL
AUCInf ([2]; bone, IV 3 mg/kg): 3687 ng·h/g
AUClast ([2]; bone, IV 3 mg/kg): 3650 ng·h/g
AUCInf [2, 4]: 2190 ng·h/g
AUClast [2, 4]: 1897 ng·h/g
AUCInf ([2]; bone, PO (QD*3) 10 mg/kg): 2573 ng·h/g
AUClast ([2]; bone, PO (QD*3) 10 mg/kg): 2539 ng·h/g
Cmax ([2]; female, C57/BL6, mouse, bone, iv, 3 mg/kg, IV 3 mg/kg): 1070 ng/g
Cmax ([2]; female, C57/BL6, mouse, bone, po, 10 mg/kg, PO 10 mg/kg, one administration): 174 ng/g
Cmax ([2]; female, C57/BL6, mouse, bone, po, 10 mg/kg, PO (QD*3) 10 mg/kg): 298 ng/g
Kp ([2]; female, C57/BL6, mouse, bone/plasma, iv, 3 mg/kg, IV 3 mg/kg, read-out: AUClast Ratio (Bone/Plasma)): 1.14
Kp ([2]; female, C57/BL6, mouse, bone/plasma, iv, 3 mg/kg, IV 3 mg/kg, read-out: Cmax Ratio (Bone/Plasma)): 0.419
Kp ([2]; female, C57/BL6, mouse, bone/plasma, po, 10 mg/kg, PO 10 mg/kg, one administration, read-out: AUClast Ratio (Bone/Plasma)): 0.725
Kp ([2]; female, C57/BL6, mouse, bone/plasma, po, 10 mg/kg, PO 10 mg/kg, one administration, read-out: Cmax Ratio (Bone/Plasma)): 0.475
Kp ([2]; female, C57/BL6, mouse, bone/plasma, po, 10 mg/kg, PO (QD*3) 10 mg/kg, read-out: AUClast Ratio (Bone/Plasma)): 0.779
Kp ([2]; female, C57/BL6, mouse, bone/plasma, po, 10 mg/kg, PO (QD*3) 10 mg/kg, read-out: Cmax Ratio (Bone/Plasma)): 0.766
Cmax ([2]; female, C57/BL6, mouse, liver, iv, 3 mg/kg, IV 3 mg/kg): 28000 ng/g
Cmax ([2]; female, C57/BL6, mouse, liver, po, 10 mg/kg, PO 10 mg/kg, one administration): 3210 ng/g
Cmax ([2]; female, C57/BL6, mouse, liver, po, 10 mg/kg, PO (QD*3) 10 mg/kg): 3570 ng/g
Kp ([2]; female, C57/BL6, mouse, liver/plasma, iv, 3 mg/kg, IV 3 mg/kg, read-out: AUClast Ratio (Liver/Plasma)): 8.3
Kp ([2]; female, C57/BL6, mouse, liver/plasma, iv, 3 mg/kg, IV 3 mg/kg, read-out: Cmax Ratio (Liver/Plasma)): 10.9
Kp ([2]; female, C57/BL6, mouse, liver/plasma, po, 10 mg/kg, PO 10 mg/kg, one administration, read-out: AUClast Ratio (Liver/Plasma)): 9.23
Kp ([2]; female, C57/BL6, mouse, liver/plasma, po, 10 mg/kg, PO 10 mg/kg, one administration, read-out: Cmax Ratio (Liver/Plasma)): 8.78
Kp ([2]; female, C57/BL6, mouse, liver/plasma, po, 10 mg/kg, PO (QD*3) 10 mg/kg, read-out: AUClast Ratio (Liver/Plasma)): 7.64
Kp ([2]; female, C57/BL6, mouse, liver/plasma, po, 10 mg/kg, PO (QD*3) 10 mg/kg, read-out: Cmax Ratio (Liver/Plasma)): 9.18
AUC(0-inf) ([2]; female, C57/BL6, mouse, plasma, iv, 3 mg/kg, Table 10, IV 3 mg/kg, read-out: Area under the curve-AUCinf): 3200 ng·h/mL
AUC(0-t) ([2]; female, C57/BL6, mouse, plasma, iv, 3 mg/kg, Table 10, IV 3 mg/kg, read-out: Area under the curve-AUClast): 3190 ng·h/mL
C0 ([2]; female, C57/BL6, mouse, plasma, iv, 3 mg/kg, Table 10, IV 3 mg/kg, read-out: Concentration-C0): 3590 ng/mL
half-life ([2]; female, C57/BL6, mouse, plasma, iv, 3 mg/kg, Table 10, IV 3 mg/kg, read-out: Half life-t1/2 (converted)): 6.56 h
AUC(0-inf) ([2]; female, C57/BL6, mouse, plasma, iv, 3 mg/kg, plasma, IV 3 mg/kg, read-out: AUCInf): 3200 ng·h/mL
AUC(0-t) ([2]; female, C57/BL6, mouse, plasma, iv, 3 mg/kg, plasma, IV 3 mg/kg, read-out: AUClast): 3190 ng·h/mL
C0 ([2]; female, C57/BL6, mouse, plasma, iv, 3 mg/kg, plasma, IV 3 mg/kg, read-out: C0): 3590 ng/mL
half-life ([2]; female, C57/BL6, mouse, plasma, iv, 3 mg/kg, plasma, IV 3 mg/kg, read-out: t1/2 (converted)): 6.56 h
AUC(0-inf) ([2]; female, C57/BL6, mouse, plasma, po, 10 mg/kg, Table 10, POA single 10 mg/kg, read-out: Area under the curve-AUCinf): 2650 ng·h/mL
AUC(0-t) ([2]; female, C57/BL6, mouse, plasma, po, 10 mg/kg, Table 10, POA single 10 mg/kg, read-out: Area under the curve-AUClast): 2620 ng·h/mL
half-life ([2]; female, C57/BL6, mouse, plasma, po, 10 mg/kg, Table 10, POA single 10 mg/kg, read-out: Half life-t1/2 (converted)): 3.89 h
AUC(0-inf) ([2]; female, C57/BL6, mouse, plasma, po, 10 mg/kg, Table 10, POB QD × 3, 10 mg/kg, read-out: Area under the curve-AUCinf): 3270 ng·h/mL
AUC(0-t) ([2]; female, C57/BL6, mouse, plasma, po, 10 mg/kg, Table 10, POB QD × 3, 10 mg/kg, read-out: Area under the curve-AUClast): 3260 ng·h/mL
half-life ([2]; female, C57/BL6, mouse, plasma, po, 10 mg/kg, Table 10, POB QD × 3, 10 mg/kg, read-out: Half life-t1/2 (converted)): 5.88 h
AUC(0-inf) ([2]; female, C57/BL6, mouse, plasma, po, 10 mg/kg, plasma, PO 10 mg/kg, one administration, read-out: AUCInf): 2650 ng·h/mL
AUC(0-t) ([2]; female, C57/BL6, mouse, plasma, po, 10 mg/kg, plasma, PO 10 mg/kg, one administration, read-out: AUClast): 2620 ng·h/mL
C0 ([2]; female, C57/BL6, mouse, plasma, po, 10 mg/kg, plasma, PO 10 mg/kg, one administration, read-out: C0): 366 ng/mL
half-life ([2]; female, C57/BL6, mouse, plasma, po, 10 mg/kg, plasma, PO 10 mg/kg, one administration, read-out: t1/2 (converted)): 3.89 h
AUC(0-inf) ([2]; female, C57/BL6, mouse, plasma, po, 10 mg/kg, plasma, PO (QD*3) 10 mg/kg, read-out: AUCInf): 3270 ng·h/mL
AUC(0-t) ([2]; female, C57/BL6, mouse, plasma, po, 10 mg/kg, plasma, PO (QD*3) 10 mg/kg, read-out: AUClast): 3260 ng·h/mL
C0 ([2]; female, C57/BL6, mouse, plasma, po, 10 mg/kg, plasma, PO (QD*3) 10 mg/kg, read-out: C0): 389 ng/mL
half-life ([2]; female, C57/BL6, mouse, plasma, po, 10 mg/kg, plasma, PO (QD*3) 10 mg/kg, read-out: t1/2 (converted)): 5.88 h
bioavailability ([2]; female, C57/BL6, mouse, plasma, po, Table 10, POA single 10 mg/kg, read-out: Bioavailability-F): 24.8%
MRT last ([2]; female, C57/BL6, mouse, plasma, Table 10, IV 3 mg/kg, read-out: Mean residence time-MRTlast): 3.47 h
clearance ([2]; female, C57/BL6, mouse, plasma, Table 10, IV 3 mg/kg, read-out: Total clearance after IV administration-CLobs): 15.6 mL/min/kg
Vd ([2]; female, C57/BL6, mouse, plasma, Table 10, IV 3 mg/kg, read-out: Volume of distribution in steady state-VSSobs): 3.38 L/kg
Tmax ([2]; female, C57/BL6, mouse, bone, IV 3 mg/kg): 0.083 h
Tmax ([2]; female, C57/BL6, mouse, bone, PO 10 mg/kg, one administration): 3 h
Tmax ([2]; female, C57/BL6, mouse, liver, IV 3 mg/kg): 0.083 h
Tmax ([2]; female, C57/BL6, mouse, liver, PO 10 mg/kg, one administration): 1 h
MRT ([2]; female, C57/BL6, mouse, plasma, IV 3 mg/kg): 3.47 h
Tmax ([2]; female, C57/BL6, mouse, plasma, PO 10 mg/kg, one administration): 1 h
AUCInf ([2]; liver, IV 3 mg/kg): 26524 ng·h/g
AUClast ([2]; liver, IV 3 mg/kg): 26492 ng·h/g
AUCInf [2, 5]: 24170 ng·h/g
AUClast [2, 5]: 24146 ng·h/g
AUCInf ([2]; liver, PO (QD*3) 10 mg/kg): 24965 ng·h/g
AUClast ([2]; liver, PO (QD*3) 10 mg/kg): 24927 ng·h/g
AUC_%Extrap ([2]; plasma, IV 3 mg/kg): 0.258%
Cl_obs ([2]; plasma, IV 3 mg/kg): 15.6 mL/min/kg
Vss_obs ([2]; plasma, IV 3 mg/kg): 3.38 L/kg
AUC_%Extrap [2, 6]: 1.20%
F [2, 6]: 24.8%
AUC_%Extrap ([2]; plasma, PO (QD*3) 10 mg/kg): 0.265%
bone volume per tissue volume (BV/TV) [3]: small non-significant improvement
trabecular number (Tb.N) [3]: significant increase
trabecular separation (Tb.Sp) [3]: small non-significant improvement
trabecular thickness (Tb.Th) [3]: significant increase
